Measured values taken from patent US20190352276A1, “INHIBITORS OF BRUTON'S TYROSINE KINASE” (Joint Stock Company "Biocad", priority 2016, published 2019).
Values belong to the compound of their own block, whether it stands above or below them.

What was measured:
[1] = tested on: Z-138 (mantle cell lymphoma); assay: Antiproliferative activity, Z-138 cells (Alamar Blue); type: cell-based; details: Homo sapiens
Experimental: (§1) Antiproliferative activity of BTK inhibitors was measured in cell-based bioassay on B-cells cultures: Mino (mantle cell lymphoma, ATCC® CRL-3000™), Z-138 (mantle cell lymphoma, ATCC® CRL-3001™) and DOHH2 (follicular lymphoma, Creative Bioarray CSC-C0219) using cell viability reagent Alamar Blue (Invitrogen, #DAL 1100). Cells were cultured in 10% FB S-supplemented (HyClone, #SH3008803/Gibco, #16140-071) RPMI-1640 (PanEco, #S330p) for at least 1 passage after thawing, washed with PBS and passaged in 96-well culture plates (Corning, #3599) with growth medium with 10% FBS (HyClone, #SH3008803/Gibco, #16140-071) and antibiotic (50 μg/ml of gentamicin (Biolot, #1.3.16))≈3*10^4 cells in 50 μl of medium per well.
(§2) The compounds were dissolved in DMSO and diluted with the assay medium to final concentrations ranging from […]. 150 μl of each diluted compound were then added to each well (final concentration of DMSO was less than 1%) and incubated at 37° C. in an incubator under 5% of CO2 for 72 h. After incubation, 20 μl of Alamar Blue reagent (Invitrogen, #DAL1100) were added to each well. The plates were shaked on an orbital shaker (Biosan, Latvia) and then incubated for 14-16 hours at 37° C. in the incubator.
(§3) The number of living cells were estimated, measuring the fluorescence signal at the excitation wavelength (REx) of 540 nm and the emission wavelength (λEm) of 590 nm on a microplate reader (Tecan Infinite M200Pro, Switzerland).
(§4) For each compound, IC50 was calculated using Magellan 7.2 software (Tecan, Switzerland) approximating experimental points by four-parameter logistic model with the optimization by Levenberg-Marquardt.

[2] = tested on: HepG2 cells (hepatocellular carcinoma); assay: General cytotoxicity on HepG2 cells (CC50; therapeutic index CC50 HepG2/IC50 Mino); type: cell-based; details: therapeutic index
Experimental: (§5) The CC50 values were determined in the test for General cytotoxicity on HepG2 cells (hepatocellular carcinoma, ATCC® HB-8065™). 2*10^4 cells (in 50 μl) per well were seeded in 96-well plates (Corning, #3599) in DMEM medium (PanEco, #S420p), after 24 h of incubation 150 μl of candidate compounds were added to each well in the range of final concentrations from 200 μM to 4 μM and the plate was incubated in a total volume of 200 μl for 72 hours. Viability of the cells was assessed using Alamar Blue dye (Invitrogen, #DAL 1100). CC50 was determined similarly (table 10).
(§6) The relationship between toxic (CC50) and a therapeutic (IC50) effects of the dose is the therapeutic index, which can be expressed as the ratio between CC50 (HepG2) (general cytotoxicity of the candidate) and IC50 (Mino) (antiproliferative activity on the target cells): […]

[3] = as above; type: cell-based; details: human, HepG2 cells (hepatocellular carcinoma), 72 hours, Alamar Blue
Experimental: as §5, §6

[4] = tested on: Mino (mantle cell lymphoma); assay: Antiproliferative activity, Mino cells (Alamar Blue); type: cell-based; details: Homo sapiens
Experimental: as §1, §2, §3, §4

[5] = Chemical stability in artificial gastric fluid (SGF without enzymes); details: 10 μM in SGF without enzymes, pH=1.4, 37° C.
[6] = Table 10, 72 h, average of several tests
[7] = Table 10, average of several tests

IC50 [1, 6]: 4.3 µM
IC50 [4, 6]: 4.02 µM
Compound: C=CC(=O)N1CC(n2nc(-c3ccc(Oc4ccncc4)cc3)c3cncc(Cl)c32)C1 [BCD-BTK-282, 1-(3-(7-chloro-3-(4-(pyridin-4-yloxy)phenyl)-1H-pyrazolo[4,3-c]pyridin-1-yl)azetidin-1-yl)prop-2-en-1-one]
CC50 (HepG2)/IC50 (Mino) ([2]; Table 10): 2.35
CC50 at 72 h [3, 7]: 9.45 µM

IC50 [1, 6]: > 50 µM
IC50 [4, 6]: 28.8 µM
Compound: C=CC(=O)N1CCC[C@@H](n2nc(-c3ccc(C(=O)Nc4ncccc4F)cc3)c3cncc(F)c32)C1 [BCD-BTK-249, (R)-4-(1-(1-acryloylpiperidin-3-yl)-7-fluoro-1H-pyrazolo[4,3-c]pyridin-3-yl)-N-(3-fluoropyridin-2-yl)benzamide]
CC50 (HepG2)/IC50 (Mino) ([2]; Table 10): >3.47
CC50 at 72 h [3, 7]: ~100 µM

Amount of substance in the sample in % (chemical stability) [5]: 100%
Compound: C=CC(=O)N1CC(Cn2nc(-c3ccc(C(=O)Nc4ccccn4)cc3)c3cncc(Cl)c32)C1 [BCD-BTK-276, 4-(7-chloro-1-{[1-(prop-2-enoyl)azetidin-3-yl]methyl}-1H-pyrazolo[4,3-c]pyridin-3-yl)-N-(pyridin-2-yl)benzamide]

Amount of substance in the sample in % (chemical stability) [5]: 100%
Compound: C=CC(=O)N1CC[C@@H](n2nc(-c3ccc(C(=O)Nc4ccccn4)cc3)c3cncc(Cl)c32)C1 [BCD-BTK-275, (R)-4-(1-(1-acryloylpyrrolidin-3-yl)-7-chloro-1H-pyrazolo[4,3-c]pyridin-3-yl)-N-(pyridin-2-yl)benzamide]

Amount of substance in the sample in % (chemical stability) [5]: 100%
Compound: C=CC(=O)N1CCC[C@@H](n2nc(-c3ccc(C(=O)Nc4cc(C(F)(F)CC)ccn4)cc3)c3cncc(Cl)c32)C1 [BCD-BTK -215, (R)-4-(1-(1-acryloylpiperidin-3-yl)-7-chloro-1H-pyrazolo[4,3-c]pyridin-3-yl)-N-(4-(1,1-difluoropropyl)pyridin-2-yl)benzamide]

Amount of substance in the sample in % (chemical stability) [5]: 100%
Compound: C=CC(=O)N1CCC[C@@H](n2nc(-c3ccc(C(=O)Nc4ccc(F)cn4)cc3)c3cncc(C#N)c32)C1 [BCD-BTK-227, (R)-4-(1-(1-acryloylpiperidin-3-yl)-7-cyano-1H-pyrazolo[4,3-c]pyridin-3-yl)-N-(5-fluoropyridin-2-yl)benzamide]

Amount of substance in the sample in % (chemical stability) [5]: 100%
Compound: C=CC(=O)N1CCC[C@@H](n2nc(-c3ccc(C(=O)Nc4cc(C(F)(F)CCC)ccn4)cc3)c3c(N)ncc(Cl)c32)C1 [BCD-BTK - 254, (R)-4-(1-(1-acryloylpiperidin-3-yl)-4-amino-7-chloro-1H-pyrazolo[4,3-c]pyridin-3-yl)-N-(4-(1,1-difluorobutyl)pyridin-2-yl)benzamide]

Amount of substance in the sample in % (chemical stability) [5]: 100%
Compound: C=CC(=O)N1CCC[C@@H](Cn2nc(-c3ccc(C(=O)Nc4ccccn4)cc3)c3cncc(Cl)c32)C1 [BCD-BTK-279, (R)-4-(1-((1-acryloylpiperidin-3-yl)methyl)-7-chloro-1H-pyrazolo[4,3-c]pyridin-3-yl)-N-(pyridin-2-yl)benzamide]

Amount of substance in the sample in % (chemical stability) [5]: 100%
Compound: CC#CC(=O)N1CC[C@H](Cn2nc(-c3ccc(C(=O)Nc4ccccn4)cc3)c3cncc(Cl)c32)C1 [BCD-BTK - 287, (S)-4-(1-((1-(but-2-ynoyl)pyrrolidin-3-yl)methyl)-7-chloro-1H-pyrazolo[4,3-c]pyridin-3-yl)-N-(pyridin-2-yl)benzamide]

Amount of substance in the sample in % (chemical stability) [5]: 100%
Compound: C=CC(=O)N1CCC[C@@H](n2nc(-c3ccc(Oc4ccncc4C(N)=O)cc3)c3cncc(Cl)c32)C1 [BCD-BTK -203, (R)-4-(4-(1-(1-acryloylpiperidin-3-yl)-7-chloro-1H-pyrazolo[4,3-c]pyridin-3-yl)phenoxy)nicotinamide]

Amount of substance in the sample in % (chemical stability) [5]: 100%
Compound: C=CC(=O)N1CCC[C@@H](n2nc(-c3ccc(C(=O)Nc4ccccn4)cc3)c3cncc(Cl)c32)C1 [BCD-BTK -201]

More lines, now with the values behind:

Compound: CC#CC(=O)N1CC[C@H](n2nc(-c3ccc(Oc4ccncc4)cc3)c3cncc(Cl)c32)C1 [BCD-BTK-270, (S)-1-(3-(7-chloro-3-(4-(pyridin-4-yloxy)phenyl)-1H-pyrazolo[4,3-c]pyridin-1-yl)pyrrolidin-1-yl)but-2-yn-1-one]
IC50 [1, 6]: 14.3 µM
CC50 (HepG2)/IC50 (Mino) ([2]; Table 10): 3.45
CC50 at 72 h [3, 7]: 23.4 µM
IC50 [4, 6]: 6.79 µM
Amount of substance in the sample in % (chemical stability) [5]: 99.1%

Compound: C=CC(=O)Oc1cnc2c(c(-c3ccc(-n4ccc(=O)cc4)cc3)nn2[C@@H]2CCCN(C(=O)C=C)C2)c1Cl [BCD-BTK-136, (R)-1-(1-acryloylpiperidin-3-yl)-4-chloro-3-(4-(4-oxopyridin-1(4H)phenyl)-1H-pyrazolo[3,4-b]pyridin-5-yl acrylate]
IC50 [1, 6]: > 50 µM
CC50 (HepG2)/IC50 (Mino) ([2]; Table 10): >7.97
CC50 at 72 h [3, 7]: > 100 µM
IC50 [4, 6]: 12.5 µM
Amount of substance in the sample in % (chemical stability) [5]: 89.9%

Compound: C=CC(=O)N1CCC[C@@H](n2nc(-c3ccc(Oc4ccncc4C(N)=O)cc3)c3cncc(F)c32)C1 [BCD-BTK-246, (R)-4-(4-(1-(1-acryloylpiperidin-3-yl)-7-fluoro-1H-pyrazolo[4,3-c]pyridin-3-yl)phenoxy)nicotinamide]
IC50 [1, 6]: 23.7 µM
CC50 (HepG2)/IC50 (Mino) ([2]; Table 10): >3.09
CC50 at 72 h [3, 7]: > 100 µM
IC50 [4, 6]: 32.4 µM
Amount of substance in the sample in % (chemical stability) [5]: 100%

Compound: CC#CC(=O)N1CC(n2nc(-c3ccc(Oc4ccncc4)cc3)c3cncc(Cl)c32)C1 [BCD-BTK-281, 1-(3-(7-chloro-3-(4-(pyridin-4-yloxy)phenyl)-1H-pyrazolo[4,3-c]pyridin-1-yl)azetidin-1-yl)but-2-yn-1-one]
IC50 [1, 6]: 4.67 µM
CC50 (HepG2)/IC50 (Mino) ([2]; Table 10): 2.81
CC50 at 72 h [3, 7]: 15.8 µM
IC50 [4, 6]: 5.63 µM

Compound: C=CC(=O)N1CCC[C@@H](n2nc(-c3ccc(Oc4ccccc4)cc3)c3c(N)ncnc32)C1 [Ibrutinib, ibrutinib, reference compound]
IC50 ([1]; Table 11, 72 h): 15.1 µM
CC50 (HepG2)/IC50 (Mino) ([2]; Table 11): 5.98
CC50 at 72 h ([3]; Table 11): 54.9 µM
IC50 ([4]; Table 11, 72 h): 9.18 µM

Compound: C=CC(=O)N1CCC[C@@H](n2nc(-c3cnc(C(=O)Nc4cc(C(F)(F)CCC)ccn4)nc3)c3cncc(Cl)c32)C1 [BCD-BTK - 292, (R)-5-(1-(1-acryloylpiperidin-3-yl)-7-chloro-1H-pyrazolo[4,3-c]pyridin-3-yl)-N-(4-(1,1-difluorobutyl)pyridin-2-yl)pyrimidine-2-carboxamide]
Amount of substance in the sample in % (chemical stability) [5]: 100%

Compound: C=CC(=O)N1CCC[C@@H](n2nc(-c3ccc(Oc4ccncc4)cc3)c3c(N)ncc(C#N)c32)C1 [BCD-BTK - 134, (R)-1-(1-acryloylpiperidin-3-yl)-4-amino-3-(4-(pyridin-4-yloxy)phenyl)-1H-pyrazolo[4,3-c]pyridin-7-carbonitrile]
Amount of substance in the sample in % (chemical stability) [5]: 100%

Compound: C=CC(=O)N1CCC[C@@H](n2nc(-c3cnc(C(=O)Nc4cc(C(F)(F)CC)ccn4)nc3)c3cncc(Cl)c32)C1 [BCD-BTK - 293, (R)-5-(1-(1-acryloylpiperidin-3-yl)-7-chloro-1H-pyrazolo[4,3-c]pyridin-3-yl)-N-(4-(1,1-difluoropropyl)pyridin-2-yl)pyrimidine-2-carboxamide]
Amount of substance in the sample in % (chemical stability) [5]: 98.4%

Compound: C=CC(=O)N1CCC[C@@H](n2nc(-c3ccc(Oc4ccncc4)cc3)c3cncc(C#N)c32)C1 [BCD-BTK - 123, (R)-1-(1-acryloylpiperidin-3-yl)-3-(4(pyridin-4-yloxy)phenyl)-1H-pyrazolo[4,3-c]pyridin-7-carbonitrile]
Amount of substance in the sample in % (chemical stability) [5]: 97%

Compound: C=CC(=O)N1CCC[C@@H](n2nc(-c3ccc(Oc4ccncc4C#N)cc3)c3cncc(F)c32)C1 [BCD-BTK -217, (R)-4-(4-(1-(1-acryloylpiperidin-3-yl)-7-fluoro-1H-pyrazolo[4,3-c]pyridin-3-yl)phenoxy)nicotinonitrile]
Amount of substance in the sample in % (chemical stability) [5]: 95.3%
